Experimental data published in patent US9527807B2, “Sulfonamide derivative and use thereof” (Takeda Pharmaceutical Company Limited, priority 2011, dated 2016).

Biological target: T1, AMPA receptor (human GluR1 flip/stargazin expressed in CHO-K1 cells) (Homo sapiens, UniProt P42261)
T1 construct: expressed in transfected cells; host or cells: CHO-K1
Assay: AMPA receptor function enhancing activity using calcium influx as index
Type: cell-based
Details: change in fluorescence level in 3 min, 100% = 3 mM glutamic acid + 300 μM cyclothiazide, 0% = 3 mM glutamic acid only
Description: Human GluR1 flip cDNA was amplified by PCR using forward primer […] (SEQ ID NO: 1) and reverse primer […] (SEQ ID NO: 2) artificially synthesized using human brain-derived cDNA (BD Bio science) as a template. The amplified product was digested with restriction enzymes EcoRI, NotI (TAKARA SHUZO CO. LTD.), and incorporated into the same site of pcDNA3.1(+) (Invitrogen) to construct pcDNA3.1(+)/human GluR1 flip gene. Human stargazin cDNA was amplified by PCR using forward primer […] (SEQ ID NO: 3) and reverse primer. […] (SEQ ID NO: 4) artificially synthesized using human hippocampus cDNA as a template. The amplified product was digested with restriction enzymes XhoI, BamHI (TAKARA SHUZO CO. LTD.), and incorporated into the same site of pcDNA3.1(−) (Invitrogen) to construct pcDNA3.1 Zeo(−)/human stargazin gene.
(2) Construction of GluR1 Flip/Stargazin Expressing Cell
CHO-K1 cells passaged in a culture medium (Ham's F12 medium (Invitrogen) added with 10% inactivated fetal bovine serum (Morgate) and penicillin, streptomycin (Invitrogen)) were detached with 0.05% trypsin, 0.53 mM EDTA (Invitrogen) diluted with D-PBS(−). The detached cells were suspended in a culture medium, and recovered by a centrifugation operation at 1,000 rpm. The recovered cells were suspended again in D-PBS(−), and added to a 0.4 cm electroporation cuvette (BioRad). pcDNA3.1(+)/human GluR1 flip gene (5 μg) and pcDNA3.1 Zeo(−)/human stargazin gene (15 μg) were added, and the mixture was introduced into CHO-K1 cells using Gene Pulser II (BioRad) under the conditions of 950 μFd, […]. The introduced cells were cultured overnight in a culture medium and, the next day, plated in a 96 well plate at 250 cells/well using a selection medium (culture medium added with Zeocin (Invitrogen) to 250 μg/mL). Clones showing drug resistance were selected, and GluR1 flip/stargazin expressing clones were selected by an assay method using calcium influx as an index as shown below.
(3) Measurement Method of AMPA Receptor Function Enhancing Activity of Compound Using Calcium Influx as Index
CHO-K1/GluR1 flip/stargazin expressing cells were plated on a 384 well black transparent bottom plate (FMAT4307723) at 0.5×10^4 cells/well, and cultured in a 37° C., CO2 incubator (SANYO Electric Co., Ltd.) for 2 days. The medium in the cell plate was removed, and a calcium indicator (Calcium 4 Assay Kit, Molecular. Devices) containing 1.25 mM probenecid (Invitrogen) was added at 25 μL/well and the well was left standing in 37° C., CO2 incubator for 1 hr. The cell plate was set in FLITRtetra (Molecular Devices), a mixture (12.5 μL) of 9 mM glutamic acid diluted with assay buffer B (HBSS (Invitrogen), 0.1% BSA, 10 mM HEPES) and a test compound was added, and the amount of change in fluorescence level in 3 min was measured. In the definition here, the amount of change in fluorescence level of well added with glutamic acid at final concentration 3 mM and 300 μM cyclothiazide (TOCRIS) is 100%, the amount of change in fluorescence level of well added only with glutamic acid at final concentration 3 mM is 0%, and the compound activity was calculated according to the following formula. activity (%)=(X−C)/(T−C)×100 T: amount of change in fluorescence level of well added with glutamic acid at final concentration 3 mM and 300 μM cyclothiazide C: amount of change in fluorescence level of well added only with glutamic acid at final concentration 3 mM X: amount of change in fluorescence level of well added with to test compound

T1 sequence (P42261 19-906 isoform P42261-2 limits assumed): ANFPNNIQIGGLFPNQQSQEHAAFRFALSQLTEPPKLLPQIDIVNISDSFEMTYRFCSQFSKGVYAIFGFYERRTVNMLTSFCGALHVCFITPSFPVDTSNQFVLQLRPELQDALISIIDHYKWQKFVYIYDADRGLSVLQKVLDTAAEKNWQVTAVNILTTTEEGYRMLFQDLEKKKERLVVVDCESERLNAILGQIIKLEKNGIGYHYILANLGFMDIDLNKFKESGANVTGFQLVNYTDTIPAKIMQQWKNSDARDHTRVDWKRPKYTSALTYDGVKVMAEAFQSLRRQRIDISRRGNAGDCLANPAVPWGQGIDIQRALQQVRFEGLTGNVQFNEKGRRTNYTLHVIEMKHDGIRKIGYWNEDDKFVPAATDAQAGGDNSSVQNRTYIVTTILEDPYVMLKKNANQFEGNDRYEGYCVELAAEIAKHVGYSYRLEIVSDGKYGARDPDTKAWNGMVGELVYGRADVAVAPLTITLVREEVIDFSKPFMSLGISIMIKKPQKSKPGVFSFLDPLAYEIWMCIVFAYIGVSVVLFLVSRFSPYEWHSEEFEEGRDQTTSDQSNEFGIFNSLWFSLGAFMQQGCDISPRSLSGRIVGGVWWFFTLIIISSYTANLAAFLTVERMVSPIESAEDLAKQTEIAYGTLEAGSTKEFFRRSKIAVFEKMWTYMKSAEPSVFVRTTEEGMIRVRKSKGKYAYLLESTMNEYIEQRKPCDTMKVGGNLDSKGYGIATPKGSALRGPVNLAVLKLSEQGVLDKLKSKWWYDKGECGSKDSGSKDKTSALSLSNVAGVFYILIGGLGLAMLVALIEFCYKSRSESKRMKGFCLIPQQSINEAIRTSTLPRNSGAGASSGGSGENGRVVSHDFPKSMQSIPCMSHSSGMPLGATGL
T1 sequence (Q9Y698 whole entry partner): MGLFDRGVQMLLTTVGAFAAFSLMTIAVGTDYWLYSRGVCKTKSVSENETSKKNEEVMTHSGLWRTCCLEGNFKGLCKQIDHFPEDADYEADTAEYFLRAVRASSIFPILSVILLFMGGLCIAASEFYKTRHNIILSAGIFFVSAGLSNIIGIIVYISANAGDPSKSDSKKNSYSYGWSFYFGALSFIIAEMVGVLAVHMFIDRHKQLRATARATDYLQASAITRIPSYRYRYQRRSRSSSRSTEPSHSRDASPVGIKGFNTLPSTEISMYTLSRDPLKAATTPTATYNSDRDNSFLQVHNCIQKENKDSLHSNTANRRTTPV

Structure (SMILES) | activity (%)
CCS(=O)(=O)N[C@H]1CCCO[C@@H]1COc1ccc(C2CC2)cc1 (racemic) [Example 4, 1,5-anhydro-6-O-(4-cyclopropylphenyl)-2,3,4-trideoxy-4-[(ethylsulfonyl)amino]-DL-erythrohexitol] | 86
CS(=O)(=O)N[C@H]1CCCO[C@@H]1COc1ccc(C2CC2)cc1 (racemic) [Example 5, 1,5-anhydro-6-O-(4-cyclopropylphenyl)-2,3,4-trideoxy-4-[(methylsulfonyl)amino]-DL-erythrohexitol] | 78
CS(=O)(=O)N[C@H]1CCCO[C@@H]1COc1ccc(-c2ccc(C#N)cn2)cc1 (racemic) [Example 164, 1,5-anhydro-6-O-[4-(5-cyanopyridin-2-yl)phenyl]-2,3,4-trideoxy-4-[(methylsulfonyl)amino]-DL-erythro-hexitol] | 76
CCS(=O)(=O)N[C@H]1CCCO[C@@H]1COc1ccc(-c2ncc(C)s2)cc1 (racemic) [Example 181, 1,5-anhydro-2,3,4-trideoxy-4-[(ethylsulfonyl)amino]-6-O-[4-(5-methyl-1,3-thiazol-2-yl)phenyl]-DL-erythro-hexitol] | 77
Cc1cnc(-c2ccc(OC[C@H]3OCCC[C@@H]3NS(=O)(=O)C3CC3)cc2)s1 (racemic) [Example 192, 1,5-anhydro-4-[(cyclopropylsulfonyl)amino]-2,3,4-trideoxy-6-O-[4-(5-methyl-1,3-thiazol-2-yl)phenyl]-DL-erythro-hexitol] | 74
O=S(=O)(N[C@H]1CCOC[C@@H]1COc1ccc(-c2ccc(F)cn2)c(F)c1)C1CC1 (racemic) [Example 243, N-[(3RS,4SR)-3-{[3-fluoro-4-(5-fluoropyridin-2-yl)phenoxy]methyl}tetrahydro-2H-pyran-4-yl]cyclopropanesulfonamide] | 96
CS(=O)(=O)N[C@H]1CCOC[C@@H]1COc1ccc(-c2ccc(Cl)cn2)c(F)c1 (racemic) [Example 244, N-[(3RS,4SR)-3-{[4-(5-chloropyridin-2-yl)-3-fluorophenoxy]methyl}tetrahydro-2H-pyran-4-yl]methanesulfonamide] | 96
CS(=O)(=O)N[C@H]1CCC(F)(F)C[C@@H]1COc1ccc(-c2ccc(C#N)cn2)cc1 (racemic) [Example 260, N-[(1SR,2SR)-2-{[4-(5-cyanopyridin-2-yl)phenoxy]methyl}-4,4-difluorocyclohexyl]methanesulfonamide] | 82
CCS(=O)(=O)N[C@H]1CCOC[C@@H]1COc1ccc(-c2ncc(Cl)s2)cc1 (racemic) [Example 261, N-[(3RS,4SR)-3-{[4-(5-chloro-1,3-thiazol-2-yl)phenoxy]methyl}tetrahydro-2H-pyran-4-yl]ethanesulfonamide] | 92
O=S(=O)(N[C@H]1CCOC[C@@H]1COc1ccc(-c2ncc(Cl)cc2F)cc1)C1CC1 (racemic) [Example 262, N-[(3RS,4SR)-3-{[4-(5-chloro-3-fluoropyridin-2-yl)phenoxy]methyl}tetrahydro-2H-pyran-4-yl]cyclopropanesulfonamide] | 89
CCS(=O)(=O)N[C@H]1CCN(C(C)=O)C[C@@H]1COc1ccc(OC(F)F)cc1 (relative stereo) [Example 1, trans-N-[1-acetyl-3-{[4-(difluoromethoxy)phenoxy]methyl}piperidin-4-yl]ethanesulfonamide] | 46
CCS(=O)(=O)N[C@H]1CCN(C(C)=O)C[C@@H]1COc1ccc(CCC#N)cc1 (relative stereo) [Example 2, trans-N-[1-acetyl-3-{[4-(2-cyanoethyl)phenoxy]methyl}piperidin-4-yl]ethanesulfonamide] | 38

Second part, the molecule after the results:

activity (%) | Structure (SMILES)
38 | CS(=O)(=O)N[C@H]1C[C@H]2CC[C@H](O2)[C@@H]1COc1ccc(-c2ccc(C#N)cn2)cc1 (mixture of isomers) [Example 508, N-((1S,2SR,3SR,5R)-2-((4-(5-cyanopyridin-2-yl)phenoxy)methyl)-8-oxabicyclo[3.2.1]oct-3-yl)methanesulfonamide]
66 | Cc1nc(-c2ccc(OC[C@H]3COCC[C@@H]3NS(C)(=O)=O)cc2)cs1 (racemic) [Example 263, N-[(3RS,4SR)-3-{[4-(2-methyl-1,3-thiazol-4-yl)phenoxy]methyl}tetrahydro-2H-pyran-4-yl]methanesulfonamide]
74 | CS(=O)(=O)N[C@H]1CCOC[C@@H]1COc1ccc(-n2cc(Cl)cn2)cc1 (racemic) [Example 270, N-[(3RS,4SR)-3-{[4-(4-chloro-1H-pyrazol-1-yl)phenoxy]methyl}tetrahydro-2H-pyran-4-yl]methanesulfonamide]
79 | CN(C)S(=O)(=O)N[C@H]1CCOC[C@@H]1COc1ccc(-n2cc(Cl)cn2)cc1 (racemic) [Example 279, N′-[(3RS,4SR)-3-{[4-(4-chloro-1H-pyrazol-1-yl)phenoxy]methyl}tetrahydro-2H-pyran-4-yl]-N,N-dimethylsulfamide]
108 | Cc1cnn(-c2ccc(OC[C@H]3COCC[C@@H]3NS(=O)(=O)C(F)(F)F)cc2)c1 (racemic) [Example 280, 1,1,1-trifluoro-N-[(3RS,4SR)-3-{[4-(4-methyl-1H-pyrazol-1-yl)phenoxy]methyl}tetrahydro-2H-pyran-4-yl]methanesulfonamide]
64 | Cc1cc(-c2ccc(OC[C@H]3COCC[C@@H]3NS(C)(=O)=O)cc2)nn1C (racemic) [Example 281, N-[(3RS,4SR)-3-{[4-(1,5-dimethyl-1H-pyrazol-3-yl)phenoxy]methyl}tetrahydro-2H-pyran-4-yl]methanesulfonamide]
91 | CCS(=O)(=O)N[C@H]1CCOC[C@@H]1COc1ccc(-c2cccnc2C)cc1 (racemic) [Example 322, N-[(3RS,4SR)-3-{[4-(2-methylpyridin-3-yl)phenoxy]methyl}tetrahydro-2H-pyran-4-yl]ethanesulfonamide]
93 | Cc1cnc(-c2ccc(OC[C@H]3COCC[C@@H]3NS(C)(=O)=O)cc2)s1 (racemic) [Example 333, N-[(3RS,4SR)-3-{[4-(5-methyl-1,3-thiazol-2-yl)phenoxy]methyl}tetrahydro-2H-pyran-4-yl]methanesulfonamide]
70 | CCS(=O)(=O)N[C@H]1CCOC[C@@H]1COc1ccc(-c2ccc(C(F)(F)F)cn2)cc1 (racemic) [Example 351, N-[(3RS,4SR)-3-({4-[5-(trifluoromethyl)pyridin-2-yl]phenoxy}methyl)tetrahydro-2H-pyran-4-yl]ethanesulfonamide rac]
96 | O=S(=O)(N[C@H]1CCOC[C@@H]1COc1ccc(-c2ncc(F)cc2F)cc1)C1CC1 (racemic) [Example 362, N-[(3RS,4SR)-3-{[4-(3,5-difluoropyridin-2-yl)phenoxy]methyl}tetrahydro-2H-pyran-4-yl]cyclopropanesulfonamide]
66 | CCS(=O)(=O)N[C@H]1CCOC[C@@H]1COc1ccc(-n2nccc2C)cc1 (racemic) [Example 431, N-[(3RS,4SR)-3-{[4-(5-methyl-1H-pyrazol-1-yl)phenoxy]methyl}tetrahydro-2H-pyran-4-yl]ethanesulfonamide]
99 | CCS(=O)(=O)N[C@H]1CCOC[C@@H]1COc1ccc(-n2cc(Cl)cn2)c(F)c1 (racemic) [Example 489, N-[(3RS,4SR)-3-{[4-(4-chloro-1H-pyrazol-1-yl)-3-fluorophenoxy]methyl}tetrahydro-2H-pyran-4-yl]ethanesulfonamide]
